This is an account of results in patent EP0054756A2, “Antibacterial benzylpyrimidines” (THE WELLCOME FOUNDATION LIMITED, priority 1980, dated 1982).

Converted amounts (≈) assume the structure as drawn. Read-outs that look alike come from different tables or passages of the source.

Data set [1] concerns the target Dihydrofolate reductase (Escherichia coli, UniProt P0ABQ4). Kind of data set: Dihydrofolate reductase inhibition. The data set is classed as biochemical, E. coli.
Data set [2] concerns the target T1, Dihydrofolate reductase (Rattus norvegicus, UniProt Q920D2).
T1 construct: Rat liver; from tissue; host or cells: rat liver
T1 sequence (Q920D2 1-187): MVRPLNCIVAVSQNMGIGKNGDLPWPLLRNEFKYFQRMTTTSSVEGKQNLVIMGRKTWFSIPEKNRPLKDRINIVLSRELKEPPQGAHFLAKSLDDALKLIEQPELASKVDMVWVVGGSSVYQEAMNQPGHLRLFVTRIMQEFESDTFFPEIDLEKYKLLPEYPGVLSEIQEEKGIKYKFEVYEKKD
Kind of data set: Dihydrofolate reductase inhibition. Format: biochemical, Rat liver.

For data set [3], the target named is Dihydrofolate reductase (Neisseria gonorrhoeae, UniProt P04174). Kind of data set: biochemical. The following applies: N. gonorrhea enzyme; read-out: Dihydrofolate reductase inhibition, I50 x 10^8.
The test system of another data set is E. coli CN 314. Kind of data set: In vitro antibacterial activity (MIC). Format: cell-based. Conditions: Escherichia coli, CN314.
Data set [4] is described as follows: LD50 intraperitoneal in male rats. Conditions: rat, in vivo, ip. On the procedure:
The LD50's ( expressed in rng/kg intraperitoneal) of two compounds of the present invention were determined in male rats.

In data set [5] the test system is N. gonorrhea. The experiment in a line: In vitro antibacterial activity versus TMP, Wellcome test. Format: cell-based. The following applies: activity relative to trimethoprim.
Another data set relates to Staph.aureus CN 491. The experiment in a line: In vitro antibacterial activity (MIC). Format: cell-based. The following applies: Staphylococcus aureus, CN491.
The subject of the next data set is Strep.Faecalis CN 478. Kind of data set: In vitro antibacterial activity (MIC). Format: cell-based. The following applies: Enterococcus faecalis, CN478.
Data set [6] concerns Staphylococcus aureus. Kind of data set: In vitro MIC against bovine mastitis strains. The data set is classed as cell-based. Conditions: read-out: Approximate MIC. The text has this: (§1) All organisms were isolated from the bovine udder.
The next data set relates to Streptococcus uberis. The experiment in a line: In vitro MIC against bovine mastitis strains. The data set is classed as cell-based. Conditions: Internal Ref. No. 359, isolated from the bovine udder, read-out: Approximate MIC.
Text: as §1

The test system of data set [7] is Streptococcus dysgalactiae. Kind of data set: In vitro MIC against bovine mastitis strains. Conditions: read-out: Approximate MIC. Format: cell-based.
Text: as §1

For a further data set, the system named is Streptococcus agalactiae. The experiment in a line: In vitro MIC against bovine mastitis strains. Format: cell-based. The following applies: read-out: Approximate MIC.
Text: as §1

A further data set relates to St. pyogenes. The experiment in a line: In vitro antibacterial activity (MIC). Format: cell-based. Conditions: Streptococcus pyogenes.
For data set [8], the target named is Dihydrofolate reductase (Plasmodium berghei, UniProt Q27713). The experiment in a line: biochemical. The following applies: P. berghei enzyme; read-out: Dihydrofolate reductase inhibition, I50 x 10^8.
In data set [9] the test system is Staphylococcus aureus. Kind of data set: In vitro MIC against bovine mastitis strains. Conditions: "OXFORD", Internal Ref. No. 6571, read-out: Approximate MIC. The data set is classed as cell-based.
Data set [10] deals with N. gonorrhea. Kind of data set: In vitro antibacterial activity versus TMP, Difco test. Format: cell-based. The following applies: activity relative to trimethoprim.

As usually defined, the MIC is the lowest concentration that inhibits growth of the organism. A word on the LD50: it is the dose expected to kill half of the subjects tested. A high value points to a less toxic substance. For the compound `COc1cc(Cc2cnc(N)nc2N)cc(OCCCc2ccccc2)c1OC` [compound 1, 2,4-Diamino-5-(3,4-dimethoxy-5-(3-phenylpropoxy)benzyl)pyrimidine], the IC50 against Dihydrofolate reductase [1] worked out at 4.8 nM; on Dihydrofolate reductase [2], 94000 nM; on Dihydrofolate reductase [3], 15 nM; at Dihydrofolate reductase [8] it was 100 nM. For the same compound, the MIC against E. coli CN 314 amounted to 1 µg/mL (≈ 2.54 µM); with Staph.aureus CN 491, 0.03 µg/mL (≈ 0.0761 µM); with Strep.Faecalis CN 478, 0.1 µg/mL (≈ 0.254 µM); in the data set on Staphylococcus aureus [6] (Internal Ref. No. 316, isolated from the bovine udder) it was 0.025 µM (≈ 0.00986 µg/mL); with Staphylococcus aureus [6] (Internal Ref. No. 317, isolated from the bovine udder), 0.025 µM (≈ 0.00986 µg/mL); in the data set on Staphylococcus aureus [6] (Internal Ref. No. 348, isolated from the bovine udder), 0.025 µM (≈ 0.00986 µg/mL). Besides, the MIC in the data set with Staphylococcus aureus [6] (Internal Ref. No. 349, isolated from the bovine udder) came to 0.025 µM (≈ 0.00986 µg/mL); in the data set with Staphylococcus aureus [6] (Internal Ref. No. 352, isolated from the bovine udder) it was 0.075 µM (≈ 0.0296 µg/mL); with Staphylococcus aureus [6] (Internal Ref. No. 353, isolated from the bovine udder), 0.025 µM (≈ 0.00986 µg/mL); with Streptococcus uberis it was 2.5 µM (≈ 0.986 µg/mL); in data set [7] (Internal Ref. No. 366, isolated from the bovine udder), 0.75 µM (≈ 0.296 µg/mL); in data set [7] (Internal Ref. No. 367, isolated from the bovine udder) it was 0.25 µM (≈ 0.0986 µg/mL). The MIC in the data set on Streptococcus agalactiae (Internal Ref. No. 321, isolated from the bovine udder) was 0.075 µM (≈ 0.0296 µg/mL); with Streptococcus agalactiae (Internal Ref. No. 371, isolated from the bovine udder), 0.75 µM (≈ 0.296 µg/mL); in the data set on St. pyogenes (read-out: MIC St. pyogenes CN 10), 0.3 µg/mL (≈ 0.761 µM); in the data set with St. pyogenes (read-out: MIC St. pyogenes S3640), 0.3 µg/mL (≈ 0.761 µM); with Staphylococcus aureus [9], 0.025 µM (≈ 0.00986 µg/mL). The compound also showed an LD50 in data set [4] greater than 100 mg/kg. Further, in the data set on N. gonorrhea [5], the “Act., vs TMP N. gonorrhea Wellcome test” value is listed as 5.46. Besides, the “Act., vs TMP N. gonorrhea Difco test” value with N. gonorrhea [10] turned out to be 12.81.
